Several values for one entry are separate records, joined by “and”; a condition that tells them apart may be missing. Equal values may be shown once. Read-outs that look alike come from different tables or passages of the source.

In test [1] the test system is H1 human embryonic stem cells (differentiated). As to the kind of experiment: Example 3: confirmation screen, total cell number (nuclei) by high content analysis. As to conditions: relative to control treatment. The test is classed as cell-based. The source says:
All wells were fed and treated identically.

Test [2] has the same test system. The format is cell-based.
Where [3] appears, read: 2.5 uM, steps 3 and 4, triplicate.
Setting [4] is: ratio for well treated with individual compound relative to average of wells with DMSO alone.

`NC(N)=NCCNS(=O)(=O)c1cccc2cnccc12` [HA-1004]: the “Total Nuclei Ratio” value in test [1] (setting [3]) turned out to be 1.08. The “Total Nuclei” value in test [2] (setting [4]) was 1.08.
For the compound `CC1CNCCN1S(=O)(=O)c1cccc2cnccc12` (centres unmarked) [H-7], the “Total Nuclei Ratio” value in test [1] (setting [3]) is 1.09. Also, in test [2] (setting [4]), the “Total Nuclei” value was determined as 1.02.
For the compound `O=S(=O)(c1cccc2cnccc12)N1CCCNCC1` [HA-1077], in test [1] (setting [3]), the “Total Nuclei Ratio” value is 1.07. Moreover, in test [2] (setting [4]), the “Total Nuclei” value was 1.02.
For the compound `NCCNS(=O)(=O)c1cccc2cnccc12` [H-9], the “Total Nuclei Ratio” value in test [1] (setting [3]) was determined as 1.13. In addition, the “Total Nuclei” value in test [2] (setting [4]) is recorded as 1.00.
In the same order, the values of `C#Cc1cccc(Nc2ncnc3cc(OC)c(OC)cc23)c1` [BML-265] are 0.97 and 1.06.
Turning to `O=C1Nc2ccc(I)cc2/C1=C/c1cc(Br)c(O)c(Br)c1` [GW 5074], the “Total Nuclei Ratio” value in test [1] (setting [3]) worked out at 1.11. In addition, in test [2] (setting [4]), the “Total Nuclei” value came out at 1.06.
Consider `COc1ccc(S(=O)(=O)N(CCO)c2ccccc2CN(C)CC=Cc2ccc(Cl)cc2)cc1` [KN-93], for which the “Total Nuclei Ratio” value in test [1] (1 uM, steps 3 and 4) was 1.05 and 1.04. The “Total Nuclei” value in test [2] (setting [4]) amounted to 1.04.
For the compound `O=C1Cc2c([nH]c3ccc(Br)cc23)-c2ccccc2N1` [Kenpaullone], the “Total Nuclei Ratio” value in test [1] (setting [3]) was 1.02. For the same compound, in test [2] (setting [4]), the “Total Nuclei” value was found to be 0.99.
In the same order, the values of `C[S+]([O-])c1ccc(-c2nc(-c3ccc(F)cc3)c(-c3ccncc3)[nH]2)cc1` (centres unmarked) [SB-203580] are 1.05 and 1.07.
On to `N#C/C(=C/c1ccc(O)c(O)c1)C(=O)NCc1ccccc1` [AG-490], for which the “Total Nuclei Ratio” value in test [1] (setting [3]) was 0.99. The “Total Nuclei” value in test [2] (setting [4]) stood at 1.04.
In the same order, the values of `CN(C)CCCn1cc(C2=C(c3c[nH]c4ccccc34)C(=O)NC2=O)c2ccccc21` [GF 109203X] are 0.82 and 1.05.
In the case of `COCc1cc(O)c(O)c(O)c1-c1c(COC)cc(O)c(O)c1O` [HBDDE, 2,2′,3,3′,4,4′-Hexahydroxy-1,1′-biphenyl-6,6′-dimethanol dimethyl ether], the “Total Nuclei” value in test [2] (setting [4]) is 1.07.
Still for that read-out and setting: next, `N#CC(C#N)=C(N)/C(C#N)=C/c1cc(O)c(O)c(O)c1` [Tyrphostin 51]: 1.04; `Cc1ccc(-c2nn(C(C)(C)C)c3ncnc(N)c23)cc1` [PP1]: 0.99.
Take `O=c1cc(N2CCOCC2)oc2c(-c3ccccc3)cccc12` [LY 294002]: the “Total Nuclei Ratio” value in test [1] (setting [3]) was determined as 1.03. In test [2] (setting [4]), the “Total Nuclei” value is 1.08.
Regarding `CC(C)c1cc(/C=C(\C#N)C(=O)NCCCc2ccccc2)cc(C(C)C)c1O` [SU1498], in test [2] (setting [4]), the “Total Nuclei” value is reported as 1.01.
For `CS(=O)(=O)O.Cn1cc(C2=C(c3cn(CCCSC(=N)N)c4ccccc34)C(=O)NC2=O)c2ccccc21` [Ro 31-8220], the “Total Nuclei” value in test [2] (setting [4]) is recorded as 0.09.
The same measure, in the same setting: next, `CC(C)(C)n1nc(-c2ccc(Cl)cc2)c2c(N)ncnc21` [PP2]: 1.01; `N#C/C(=C\c1ccc(O)c(O)c1)C(N)=S` [Tyrphostin 47]: 1.00.
Same read-out and setting: in the case of `Cn1cnc2c(NCc3ccccc3)nc(NCCO)nc21` [Olomoucine] it was 1.04; in that of `O=c1c(-c2ccc(O)cc2)coc2cc(O)ccc12` [Daidzein], 1.03; in that of `CN[C@@H]1C[C@H]2O[C@@](C)([C@@H]1OC)n1c3ccccc3c3c4c(c5c6ccccc6n2c5c31)C(=O)NC4` [Staurosporine], 0.13.
Regarding `O=S(=O)(c1cccc2c(I)cccc12)N1CCCNCC1` [ML-7], the “Total Nuclei” value in test [2] (setting [4]) turned out to be 0.98.
The same measure, in the same setting: next, `CO[C@@H]1[C@H](N(C)C(=O)c2ccccc2)C[C@H]2O[C@]1(C)n1c3ccccc3c3c4c(c5c6ccccc6n2c5c31)C(=O)NC4` [PKC-412]: 0.17.
Take `Cl.Cl.O=S(=O)(NCCNC/C=C/c1ccc(Br)cc1)c1cccc2cnccc12` [H-89]: the “Total Nuclei Ratio” value in test [1] (setting [3]) was 1.08. The “Total Nuclei” value in test [2] (setting [4]) is listed as 1.09.
As to `COC(=O)/C=C/c1cc(O)ccc1O` [Erbstatin analog], in test [2] (setting [4]), the “Total Nuclei” value amounted to 0.82.
With `COc1cccc(-c2cc(=O)c3ccccc3o2)c1N` [PD-98059], in test [1] (setting [3]), the “Total Nuclei Ratio” value is reported as 0.96. Further, the “Total Nuclei” value in test [2] (setting [4]) is listed as 0.92.
With `N#CC(=C(/N)Sc1ccccc1N)/C(C#N)=C(\N)Sc1ccccc1N` [U-0126], the “Total Nuclei” value in test [2] is reported as 0.87.
In the case of `Oc1ccc(-c2nc(-c3ccc(F)cc3)c(-c3ccncc3)[nH]2)cc1` [SB-202190], in test [1] (setting [3]), the “Total Nuclei Ratio” value worked out at 1.08. Moreover, the “Total Nuclei” value in test [2] (setting [4]) amounted to 1.08.
As to `CN([C@@H](Cc1ccc(OS(=O)(=O)c2cccc3cnccc23)cc1)C(=O)N1CCN(c2ccccc2)CC1)S(=O)(=O)c1cccc2cnccc12` [KN-62], in test [1] (1 uM, steps 3 and 4), the “Total Nuclei Ratio” value is 1.02 and 1.03. The “Total Nuclei” value in test [2] (setting [4]) turned out to be 0.96.
As for `CC(C)c1cnc(NC(=O)Cc2ccccc2)s1` [BML-259], the “Total Nuclei Ratio” value in test [1] (setting [3]) was 0.99. Also, the “Total Nuclei” value in test [2] (setting [4]) worked out at 1.04.
Consider `COC[C@H]1OC(=O)c2coc3c2[C@@]1(C)C1=C(C3=O)[C@@H]2CCC(=O)[C@@]2(C)C[C@H]1OC(C)=O` [Wortmannin], for which the “Total Nuclei” value in test [2] (setting [4]) came to 1.10.
Consider `O=c1c(-c2ccc(O)cc2)coc2cc(O)cc(O)c12` [Genistein], for which the “Total Nuclei” value in test [2] (setting [4]) was 1.03.
On to `CNCCNS(=O)(=O)c1cccc2cnccc12` [H-8], for which, in test [2] (setting [4]), the “Total Nuclei” value came out at 0.99.
On the same count and under the same terms, in the case of `N#CC(C#N)=Cc1cc(O)c(O)c([N+](=O)[O-])c1` [Tyrphostin AG 1288] it was 1.04; in that of `CO[C@H]1C[C@@H]2CC[C@@H](C)[C@@](O)(O2)C(=O)C(=O)N2CCCC[C@H]2C(=O)O[C@H]([C@H](C)C[C@@H]2CC[C@@H](O)[C@H](OC)C2)CC(=O)[C@H](C)/C=C(\C)[C@@H](O)[C@@H](OC)C(=O)[C@H](C)C[C@H](C)/C=C/C=C/C=C/1C` [Rapamycin], 0.47.
Take `CC(C)(C)c1cc(/C=C(\C#N)C(N)=S)cc(C(C)(C)C)c1O` [AG-879]: the “Total Nuclei” value in test [2] (setting [4]) was 1.03.
Take `Oc1c2ccccc2c2c3c(cccc13)N=N2` [SP 600125]: the “Total Nuclei” value in test [2] (setting [4]) was 1.04.
For `OC[C@H]1O[C@@H](n2cnc3cc(Cl)c(Cl)cc32)[C@H](O)[C@@H]1O` [DRB, 5,6-Dichloro-1-b-D-ribofuranosylbenzimidazole], the “Total Nuclei” value in test [2] (setting [4]) was found to be 1.01.
The same measure, in the same setting: next, `C/C(O)=C(\C#N)C(=O)Nc1cc(Br)ccc1Br` [LFM-A13]: 0.97; `Cl.O=S(=O)(c1cccc2c(Cl)cccc12)N1CCCNCC1` [ML-9]: 1.06.
The same measure, in the same setting: next, `C[C@@H](N)[C@H]1CC[C@H](C(=O)Nc2ccncc2)CC1` [Y-27632]: 1.08.
On the same count and under the same terms, in the case of `N#CC(C#N)=Cc1ccc([N+](=O)[O-])c(O)c1` [AG-126] it was 0.99; in that of `Cc1cc2ncc(-c3ccccc3)nc2cc1C` [Tyrphostin AG 1295], 1.08; in that of `Cc1cc(O)c2c(=O)c3c(O)cc(O)c4c5c(O)cc(O)c6c(=O)c7c(O)cc(C)c8c1c2c(c34)c(c78)c65` [Hypericin], 1.07.

Values taken from patent US9133439B2, “Differentiation of human embryonic stem cells” (Janssen Biotech, Inc., priority 2009, dated 2015).
